Assay results from patent EP1027349B1, “TETRAHYDROFURAN PHOSPHATE- AND HYDROXY ESTERS, AS PRODRUGS FOR THE CORRESPONDING ANTIFUNGAL AGENT” (SCHERING CORPORATION, priority 1997, dated 1999).

What was measured:
[1] = Plasma concentrations and PK parameters of the compound of formula IV in mice after intravenous administration of di-NMG salt prodrugs; type: in vivo, mouse; parameters: AUC: unit not given here; details: for Concentrations of the compound of formula IV in pooled mouse plasma, Pool 1 / Concentrations of the compound of formula IV in pooled mouse plasma, Pool 2: 2 mice/pool; for AUC: Table 3 summary: area under the curve from time zero to 24 hrs of the compound of formula IV in mouse plasma; for AUC / Bioavallability: intravenous, 20 mg/kg formula IV dose equivalent of the di-NMG salt in sterile water; for Bioavallability: of the compound of formula IV in mouse plasma
[2] = test system: Candida species (n=41); test: In vitro antifungal activity (MIC), NCCLS standard M27A; details: for MIC Range: Candida species (n=41); for MIC: Candida, read-out: G mean MICs
[3] = test system: Aspergillus species (n=30); test: In vitro antifungal activity (MIC), Espinel-Ingroff's methodology; details: for MIC Range: Aspergillus species (n=30); for MIC: Aspergillus, read-out: G mean MICs
[4] = test system: Cryptococcus neoformans (n=9); test: In vitro antifungal activity (MIC), NCCLS standard M27A; details: for MIC Range: Cryptococcus neoformans (n=9); for MIC: Cryptococcus neoformans, read-out: G mean MICs
[5] = Antifungal activity in in vivo tests in mice; details: compared with itraconazole, fluconazole and azoles of USP 5,039,676 and WO 93/09114, result in words
[6] = Pharmacokinetic (metabolism) studies in human tissues and serum; type: in vitro ADME; details: result in words
[7] = test system: Aspergillus fumigatus; test: Pulmonary Aspergillus fumigatus infection model in mice (Loebenberg et al.)
[8] = 0.017 hr (1 min) after intravenous administration of 20 mg/kg compound of formula IV dose equivalent of the di-NMG salt in sterile water
[9] = 0.017 hr (1 min) after intravenous administration of 20 mg/kg compound of formula IV dose equivalent of the di-NMG salt in sterile water, mean of 2 pools
[10] = 0.05 hr (3 min) after intravenous administration of 20 mg/kg compound of formula IV dose equivalent of the di-NMG salt in sterile water
[11] = 0.05 hr (3 min) after intravenous administration of 20 mg/kg compound of formula IV dose equivalent of the di-NMG salt in sterile water, mean of 2 pools
[12] = 0.083 hr (5 min) after intravenous administration of 20 mg/kg compound of formula IV dose equivalent of the di-NMG salt in sterile water
[13] = 0.083 hr (5 min) after intravenous administration of 20 mg/kg compound of formula IV dose equivalent of the di-NMG salt in sterile water, mean of 2 pools
[14] = 0.25 hr (15 min) after intravenous administration of 20 mg/kg compound of formula IV dose equivalent of the di-NMG salt in sterile water
[15] = 0.25 hr (15 min) after intravenous administration of 20 mg/kg compound of formula IV dose equivalent of the di-NMG salt in sterile water, mean of 2 pools
[16] = 0.5 hr (30 min) after intravenous administration of 20 mg/kg compound of formula IV dose equivalent of the di-NMG salt in sterile water
[17] = 0.5 hr (30 min) after intravenous administration of 20 mg/kg compound of formula IV dose equivalent of the di-NMG salt in sterile water, mean of pools
[18] = 1 hr. after intravenous administration of 20 mg/kg compound of formula IV dose equivalent of the di-NMG salt in sterile water
[19] = 1 hr. after intravenous administration of 20 mg/kg compound of formula IV dose equivalent of the di-NMG salt in sterile water, mean of 2 pools
[20] = 3 hr. after intravenous administration of 20 mg/kg compound of formula IV dose equivalent of the di-NMG salt in sterile water
[21] = 3 hr. after intravenous administration of 20 mg/kg compound of formula IV dose equivalent of the di-NMG salt in sterile water, mean of 2 pools
[22] = 6 hr. after intravenous administration of 20 mg/kg compound of formula IV dose equivalent of the di-NMG salt in sterile water
[23] = 6 hr. after intravenous administration of 20 mg/kg compound of formula IV dose equivalent of the di-NMG salt in sterile water, mean of 2 pools
[24] = 24 hr. after intravenous administration of 20 mg/kg compound of formula IV dose equivalent of the di-NMG salt in sterile water
[25] = 24 hr. after intravenous administration of 20 mg/kg compound of formula IV dose equivalent of the di-NMG salt in sterile water, mean of 2 pools

SMILES	Concentrations of the compound of formula IV in pooled mouse plasma, Pool 1 [1, 8] [ng/mL]	Concentrations of the compound of formula IV in pooled mouse plasma, Pool 2 [1, 8] [ng/mL]	Concentrations of the compound of formula IV in pooled mouse plasma, Mean [1, 9] [ng/mL]	Concentrations of the compound of formula IV in pooled mouse plasma, Pool 1 [1, 10] [ng/mL]	Concentrations of the compound of formula IV in pooled mouse plasma, Pool 2 [1, 10] [ng/mL]	Concentrations of the compound of formula IV in pooled mouse plasma, Mean [1, 11] [ng/mL]	Concentrations of the compound of formula IV in pooled mouse plasma, Pool 1 [1, 12] [ng/mL]	Concentrations of the compound of formula IV in pooled mouse plasma, Pool 2 [1, 12] [ng/mL]	Concentrations of the compound of formula IV in pooled mouse plasma, Mean [1, 13] [ng/mL]	Concentrations of the compound of formula IV in pooled mouse plasma, Pool 1 [1, 14] [ng/mL]	Concentrations of the compound of formula IV in pooled mouse plasma, Pool 2 [1, 14] [ng/mL]	Concentrations of the compound of formula IV in pooled mouse plasma, Mean [1, 15] [ng/mL]	Concentrations of the compound of formula IV in pooled mouse plasma, Pool 1 [1, 16] [ng/mL]	Concentrations of the compound of formula IV in pooled mouse plasma, Mean [1, 17] [ng/mL]	Concentrations of the compound of formula IV in pooled mouse plasma, Pool 1 [1, 18] [ng/mL]	Concentrations of the compound of formula IV in pooled mouse plasma, Pool 2 [1, 18] [ng/mL]	MIC [2] [µg/mL]	MIC [3] [µg/mL]	MIC Range [4] [µg/mL]	MIC [4] [µg/mL]	further results
CC[C@@H]([C@H](C)OC(=O)CCCOP(=O)(O)O)n1ncn(-c2ccc(N3CCN(c4ccc(OC[C@@H]5CO[C@@](Cn6cncn6)(c6ccc(F)cc6F)C5)cc4)CC3)cc2)c1=O [Formula II.2NMG]	171	164	168	378	297	338	798	817	808	1570	2720	2150	3020	2680	4460	3950					Concentrations of the compound of formula IV in pooled mouse plasma, Pool 2 [1, 16]: 2340 ng/mL; Concentrations of the compound of formula IV in pooled mouse plasma, Mean [1, 19]: 4210 ng/mL; Concentrations of the compound of formula IV in pooled mouse plasma, Pool 1 [1, 20]: 5160 ng/mL; Concentrations of the compound of formula IV in pooled mouse plasma, Pool 2 [1, 20]: 5630 ng/mL; Concentrations of the compound of formula IV in pooled mouse plasma, Mean [1, 21]: 5400 ng/mL; Concentrations of the compound of formula IV in pooled mouse plasma, Pool 1 [1, 22]: 5960 ng/mL; Concentrations of the compound of formula IV in pooled mouse plasma, Pool 2 [1, 22]: 3590 ng/mL; Concentrations of the compound of formula IV in pooled mouse plasma, Mean [1, 23]: 4780 ng/mL; Concentrations of the compound of formula IV in pooled mouse plasma, Pool 1 [1, 24]: 915 ng/mL; Concentrations of the compound of formula IV in pooled mouse plasma, Pool 2 [1, 24]: 992 ng/mL; Concentrations of the compound of formula IV in pooled mouse plasma, Mean [1, 25]: 954 ng/mL; AUC [1]: 79.1; Bioavallability [1]: 65%
CC[C@@H]([C@H](C)OC(=O)CCCO)n1ncn(-c2ccc(N3CCN(c4ccc(OC[C@@H]5CO[C@@](Cn6cncn6)(c6ccc(F)cc6F)C5)cc4)CC3)cc2)c1=O [Formula III, 2(S)-[4-{4-{4-{4-[[(R-Cis) -2-(2,4-difluorophenyl)-tetrahydro-2-(1H-1,2,4-triazol-1-ylmethyl)-4-furanyl]methoxy]phenyl]-1-piperazinyl]phenyl]-4,5-dihydro-5-oxo-1H-1,2,4-triazol-1-yl]-1-(S)-methylbutyl-4-hydroxy-butanoate]																	0.3	0.2	0.0156 to 0.5	0.09	MIC Range [2]: ≤ 0.0156 to 8 µg/mL; MIC Range [3]: 0.0313 to 2 µg/mL; antifungal activity in in vivo tests [5]: unexpectedly better than that of existing antifungal agents
CC[C@@H]([C@H](C)OC(=O)CCCOP(=O)(O)O)n1ncn(-c2ccc(N3CCN(c4ccc(OC[C@@H]5CO[C@@](Cn6cncn6)(c6ccc(F)cc6F)C5)cc4)CC3)cc2)c1=O [Formula II]																	7.5	5.9	0.125 to 32	1.9	metabolism [6]: metabolized to the compound of formula IV via the metabolite represented by formula III; survival ([7]; doses of 10 mg/kg, mice with a pulmonary Aspergillus fumigatus infection): 70%
CC[C@@H]([C@H](C)O)n1ncn(-c2ccc(N3CCN(c4ccc(OC[C@@H]5CO[C@@](Cn6cncn6)(c6ccc(F)cc6F)C5)cc4)CC3)cc2)c1=O [Formula IV, reference compound]																	0.2	0.1	≤0.0150 to 0.5	0.04	MIC Range [2]: ≤0.0156 to 8 µg/mL; MIC Range [3]: ≤0.0156 to 1 µg/mL; antifungal activity in in vivo tests [5]: unexpectedly better than that of existing antifungal agents
CC[C@@H]([C@H](C)OC(=O)CCCCOP(=O)(O)O)n1ncn(-c2ccc(N3CCN(c4ccc(OC[C@@H]5CO[C@@](Cn6cncn6)(c6ccc(F)cc6F)C5)cc4)CC3)cc2)c1=O [Formula V.2NMG, reference compound]	0	0	0	738	663	723	1040	1430	1240	1220	407	814	1990	1990	2730	2630					Concentrations of the compound of formula IV in pooled mouse plasma, Mean [1, 19]: 2680 ng/mL; Concentrations of the compound of formula IV in pooled mouse plasma, Pool 1 [1, 20]: 923 ng/mL; Concentrations of the compound of formula IV in pooled mouse plasma, Pool 2 [1, 20]: 2510 ng/mL; Concentrations of the compound of formula IV in pooled mouse plasma, Mean [1, 21]: 1720 ng/mL; Concentrations of the compound of formula IV in pooled mouse plasma, Pool 1 [1, 22]: 2590 ng/mL; Concentrations of the compound of formula IV in pooled mouse plasma, Pool 2 [1, 22]: 1900 ng/mL; Concentrations of the compound of formula IV in pooled mouse plasma, Mean [1, 23]: 2250 ng/mL; Concentrations of the compound of formula IV in pooled mouse plasma, Pool 1 [1, 24]: 447 ng/mL; Concentrations of the compound of formula IV in pooled mouse plasma, Pool 2 [1, 24]: 515 ng/mL; Concentrations of the compound of formula IV in pooled mouse plasma, Mean [1, 25]: 481 ng/mL; AUC [1]: 36.7; Bioavallability [1]: 30%
OC(Cn1cncn1)(Cn1cncn1)c1ccc(F)cc1F [fluconazole, reference compound]																					activity in Aspergillus pulmonary infection model ([7]; mice, result in words): inactive
